Target: T1, Pdx1 (Bacillus subtilis, UniProt P37527)
T1 construct: gene pdxS; full-length Pdx1 alone, native (untagged) from pETBsPdx1; dodecamer
Assay: ESI-MS (+[…] Da after NaBH4 reduction), tryptic peptide MALDI-TOF/TOF
Type: biochemical
Details: covalent Schiff base at K149 (P2 site); PLP made de novo from R5P, DL-G3P and ammonium sulfate

T1 sequence (P37527 2-294): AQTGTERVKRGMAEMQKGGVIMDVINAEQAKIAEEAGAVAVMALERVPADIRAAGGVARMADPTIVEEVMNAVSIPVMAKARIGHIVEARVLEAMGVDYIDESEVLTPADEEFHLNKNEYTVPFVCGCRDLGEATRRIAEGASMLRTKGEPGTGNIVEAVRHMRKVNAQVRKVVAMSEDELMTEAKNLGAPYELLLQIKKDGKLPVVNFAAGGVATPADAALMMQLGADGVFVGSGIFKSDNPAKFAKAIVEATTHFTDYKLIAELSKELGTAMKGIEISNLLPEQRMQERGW

Cc1ncc(COP(=O)(O)O)c(C=O)c1O [pyridoxal 5′-phosphate]
ESI-MS (+231 Da after NaBH4 reduction), tryptic peptide MALDI-TOF/TOF: demonstrate that PLP is covalently bound to Pdx1

Reference: paper PMC3024981, “It Takes Two to Tango: Defining an Essential Second Active Site in Pyridoxal 5′-Phosphate Synthase” (PLoS ONE, 2011)
